What follows are molecules tested against T1, Calpain-2 catalytic subunit (Ovis aries, UniProt A8IF71) (assay: BODIPY Fluorescent Microplate Assay). Settings: pH 7.5; 25 °C.
T1 sequence (A8IF71 whole entry): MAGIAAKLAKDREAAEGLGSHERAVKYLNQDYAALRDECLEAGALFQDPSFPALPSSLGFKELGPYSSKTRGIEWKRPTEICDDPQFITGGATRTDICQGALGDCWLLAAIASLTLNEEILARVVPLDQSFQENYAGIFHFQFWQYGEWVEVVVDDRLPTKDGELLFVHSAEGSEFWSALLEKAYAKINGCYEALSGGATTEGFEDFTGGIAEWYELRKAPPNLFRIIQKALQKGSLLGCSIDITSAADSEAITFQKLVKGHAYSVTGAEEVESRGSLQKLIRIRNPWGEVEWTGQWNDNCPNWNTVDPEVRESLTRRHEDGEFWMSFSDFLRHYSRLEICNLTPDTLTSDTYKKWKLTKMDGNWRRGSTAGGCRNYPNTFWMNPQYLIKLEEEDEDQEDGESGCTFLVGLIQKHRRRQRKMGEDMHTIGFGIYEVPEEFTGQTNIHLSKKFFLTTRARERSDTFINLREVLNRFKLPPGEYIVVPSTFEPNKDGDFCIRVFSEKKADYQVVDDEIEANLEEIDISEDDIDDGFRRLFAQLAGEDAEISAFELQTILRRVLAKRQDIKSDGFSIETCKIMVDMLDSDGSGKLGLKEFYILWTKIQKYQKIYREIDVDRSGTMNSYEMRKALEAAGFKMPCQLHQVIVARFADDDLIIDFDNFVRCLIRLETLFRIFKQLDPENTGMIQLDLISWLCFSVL
Protocol: Calpain inhibition assays were performed in 96-well black plates. The reaction was initiated by the addition of substrate solution. The progress of the reaction was followed for 10 min in a (BMG) Fluorostar with excitation at 485 nm and emission at 530 nm. The percentage inhibition was determined as […]. The reported IC50 values are the average of triplicate determinations.

IC50, 0.1 µM:
CC(C)C[C@@H](C=O)NC(=O)[C@@H](NC(=O)c1cccs1)C(C)C [(2S)-3-methyl-N-[(2S)-4-methyl-1-oxopentan-2-yl]-2-(thiophen-2-ylformamido)butanamide]
CC(C)C[C@@H](C=O)NC(=O)[C@@H](NC(=O)c1ccc(C=O)o1)C(C)C [(2S)-2-[(5-formylfuran-2-yl)formamido]-3-methyl-N-[(2S)-4-methyl-1-oxopentan-2-yl]butanamide]
CC(C)C[C@@H](C=O)NC(=O)[C@@H](NC(=O)c1cc(C=O)c[nH]1)C(C)C [(2S)-2-[(4-formyl-1H-pyrrol-2-yl)formamido]-3-methyl-N-[(2S)-4-methyl-1-oxopentan-2-yl]butanamide]

Source: BindingDB's records for doi:10.1016/j.bmc.2008.05.048 (University of Canterbury, 2008)
